Converted amounts (≈) assume the structure as drawn. The source made the active and inactive calls. No cut-off for these calls is given here.
How the values were obtained:
[1] = tested on: Candida albicans; assay: Antifungal activity against Candida albicans; assay type: functional
[2] = tested on: Staphylococcus aureus; assay: Antibacterial activity against methicillin-resistant Staphylococcus aureus; assay type: functional, organism-based
[3] = tested on: HCT-116; assay: Cytotoxicity against human HCT116 cells; assay type: functional, cell-based

## CC(C)/C=C/C=C/C(=O)NC1=CC(O)(CCC(N)=O)C=CC1=O (configuration not stated) [DARYAMIDE C]
[1]
  Activity: inactive
[2]
  Activity: inactive
[3]
  IC50: 10 µg/mL (≈ 31.5 µM)

## CC(C)C/C=C/C=C/C(=O)NC1=C[C@@](O)(CCC(N)=O)[C@H](O)CC1=O [DARYAMIDE A]
[1]
  MIC: 62.5 µg/mL (≈ 178 µM)
[2]
  Activity: inactive
[3]
  IC50: 3.15 µg/mL (≈ 8.99 µM)

## CC(C)C/C=C/C=C/C(=O)NC1=CC(O)(CCC(N)=O)C=CC1=O (configuration not stated) [DARYAMIDE B]
[1]
  MIC: 125 µg/mL (≈ 376 µM)
[2]
  Activity: inactive
[3]
  IC50: 9.99 µg/mL (≈ 30.1 µM)

## CC(C)C/C=C/C=C/C(N)=O
[1]
  Activity: inactive
[2]
  Activity: inactive
[3]
  IC50: 21.7 µg/mL (≈ 142 µM)

— ChEMBL document CHEMBL1158131, “Daryamides A-C, weakly cytotoxic polyketides from a marine-derived actinomycete of the genus Streptomyces strain CNQ-085” (J Nat Prod, 2006)
